Our source for the IC50 values is patent US6417190B1, “Tricyclic nitrogen heterocycles as PDE IV inhibitors” (Boehringer Ingelheim Pharma KG, priority 1998, dated 2002).

This assay relates to human PDE IV. Briefly: PDE IV inhibition, method of Torphy et al. (1992), [3H]cAMP, enzyme purified from human monocytes (U937-cells). It counts as biochemical. To be noted: 1 μCi/ml [3H] cAMP, 40 mM Tris-HCl (pH 7.8), 3 mM MgCl2, incubation 30 min at 30° C. The text has this: Table 1 contains the pharmacological data obtained for the compounds of general formula (I). The data was obtained by the method of Torphy et al. (1992), J. Pharmacol. Exp. Ther. 263:1195.
A word on the IC50: it is the concentration at which inhibition is half-maximal. In turn, `CCCn1c(=O)c2[nH]c(C3CCCC3)nc2n2nc(C(C)C)nc12` [No. 1] returned an IC50 of 0.018 µM.

Take `CCCn1c(=O)c2[nH]c(C3CCCC3)nc2n2nc(CC)nc12` [No. 2]: it took 0.039 µM to reach half-maximal inhibition (IC50).

As to `CCn1c(=O)c2[nH]c(C(C)(C)C)nc2n2nc(Cc3ccc(OC)cc3)nc12` [No. 3], the IC50 was found to be 0.042 µM.

For the compound `CCn1c(=O)c2[nH]c(C3CCCC3)nc2n2nc(CCc3ccccc3)nc12` [No. 4], the midpoint of inhibition, the IC50, lay at 0.046 µM.

The compound `CCCc1nc2n(CCC)c(=O)c3[nH]c(C4CCCC4)nc3n2n1` [No. 6] gave an IC50 of 0.049 µM.

In turn, `CCn1c(=O)c2[nH]c(C(C)(C)C)nc2n2nc(Cc3ccccc3)nc12` [No. 7] returned a concentration for half-maximal inhibition (IC50) of 0.053 µM.

`CCCc1nc2n(CCC)c(=O)c3[nH]c(-c4ccccc4)nc3n2n1` [No. 8] came in with a 50% inhibitory concentration (IC50) of 0.055 µM.

`CCn1c(=O)c2[nH]c(C3CCCC3)nc2n2nc(Cc3ccccc3)nc12` [No. 9] displayed an IC50 of 0.057 µM.

With `CCCc1nc2c([nH]1)c(=O)n(CCC)c1nc(Cc3ccccc3)nn21` [No. 10], the IC50 was 0.069 µM.

In turn, `CCn1c(=O)c2[nH]c(C3CCCC3)nc2n2nc(Cn3cccc3)nc12` [No. 11] had an IC50 of 0.069 µM.

On to `CCCn1c(=O)c2[nH]c(C3CCCC3)nc2n2nc(Cc3ccccc3)nc12` [No. 12], for which the IC50 was determined as 0.074 µM.

`CCCn1c(=O)c2[nH]c(C3CCCC3)nc2n2nc(C(C)(C)C)nc12` [No. 13] had an IC50 of 0.079 µM.

Take `CCCCc1nc2n(CCC)c(=O)c3[nH]c(C4CCCC4)nc3n2n1` [No. 14]: the IC50 was 0.081 µM.

Take `CCn1c(=O)c2[nH]c(C3CCCC3)nc2n2nc(COc3ccccc3)nc12` [No. 15]: the IC50 was 0.11 µM.

The compound `CCCn1c(=O)c2[nH]c(N3CCOCC3)nc2n2nc(Cc3ccccc3)nc12` [No. 16] showed an IC50 of 0.11 µM.

In turn, `CCn1c(=O)c2[nH]c(C3CCCC3)nc2n2nc(CC3CCCCC3)nc12` [No. 17] came in with an IC50 of 0.11 µM.

As for `CCc1nc2c([nH]1)c(=O)n(CC)c1nc(CC3CCCCC3)nn21` [No. 18], the IC50 is 0.12 µM.

With `CCCc1nc2c([nH]1)c(=O)n(CCC)c1nc(C3CCCC3)nn21` [No. 19], the IC50 worked out at 0.12 µM.
